Reference: ChEMBL document CHEMBL1764964, “Extending SAR of bile acids as FXR ligands: discovery of 23-N-(carbocinnamyloxy)-3α,7α-dihydroxy-6α-ethyl-24-nor-5β-cholan-23-amine” (Bioorg Med Chem, 2011)
The source made the active and inactive calls. No cut-off for these calls is given here.

Tests used:
[1] = biological target: T1, Bile acid receptor (Homo sapiens) (UniProt Q96RI1); test: Agonist activity at human FXR expressed in HepG2 cells assessed as renilla luciferase activity at 1 uM by luciferase based transactivation assay; format: functional, cell-based
T1 sequence (whole entry): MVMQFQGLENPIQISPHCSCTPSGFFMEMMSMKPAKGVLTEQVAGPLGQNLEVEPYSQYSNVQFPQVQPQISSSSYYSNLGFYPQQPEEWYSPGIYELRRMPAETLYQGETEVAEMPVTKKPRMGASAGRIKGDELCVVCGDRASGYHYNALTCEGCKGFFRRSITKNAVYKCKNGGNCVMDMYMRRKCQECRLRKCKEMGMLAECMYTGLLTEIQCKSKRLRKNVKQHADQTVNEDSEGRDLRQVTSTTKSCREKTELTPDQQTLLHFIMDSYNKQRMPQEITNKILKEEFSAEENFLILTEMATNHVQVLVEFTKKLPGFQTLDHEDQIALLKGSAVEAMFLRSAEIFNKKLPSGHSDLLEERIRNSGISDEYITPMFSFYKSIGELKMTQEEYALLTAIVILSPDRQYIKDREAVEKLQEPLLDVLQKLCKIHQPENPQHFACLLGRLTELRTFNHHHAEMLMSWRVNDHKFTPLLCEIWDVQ

[2] = biological target: T1, Bile acid receptor (Homo sapiens); test: Agonist activity at human GST-fused FXR LBD assessed as coactivator interaction with receptor ligand binding domain by Alphascreen assay relative to CDCA
[3] = biological target: T2, G-protein coupled bile acid receptor 1 (Homo sapiens, UniProt Q8TDU6); test: Agonist activity at human TGR5 receptor expressed in NCI-H716 cells assessed as intracellular cAMP level by TR-FRET assay; format: functional, cell-based
T2 sequence (Q8TDU6 whole entry): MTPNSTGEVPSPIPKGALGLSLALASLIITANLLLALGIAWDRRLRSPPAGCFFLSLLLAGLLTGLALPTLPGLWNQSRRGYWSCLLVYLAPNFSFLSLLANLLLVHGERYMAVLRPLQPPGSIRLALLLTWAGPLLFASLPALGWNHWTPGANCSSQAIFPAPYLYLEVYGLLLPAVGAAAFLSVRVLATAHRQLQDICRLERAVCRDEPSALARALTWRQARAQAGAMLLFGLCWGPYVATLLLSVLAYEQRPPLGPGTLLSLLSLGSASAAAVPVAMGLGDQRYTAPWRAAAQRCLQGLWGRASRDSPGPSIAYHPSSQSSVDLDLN

[4] = biological target: T3, Bile acid receptor (Homo sapiens, UniProt Q96RI1); test: Agonist activity at human GST-fused FXR LBD assessed as coactivator interaction with receptor ligand binding domain by Alphascreen assay
T3 sequence (Q96RI1 whole entry): T1 sequence (whole entry)

[5] = biological target: T1, Bile acid receptor (Homo sapiens); test: Agonist activity at human FXR expressed in HepG2 cells assessed as renilla luciferase activity at 20 uM by luciferase based transactivation assay; format: functional, cell-based

Activity [1]	SMILES	Efficacy [2] [%]	EC50 [3] [nM]	EC50 [4] [nM]	Activity [5]
Active	CC[C@H]1[C@@H](O)[C@@H]2[C@H](CC[C@]3(C)[C@@H]([C@H](C)CCNC(=O)OC/C=C/c4ccccc4)CC[C@@H]23)[C@@]2(C)CC[C@@H](O)C[C@@H]12	290	55000	150	
	C[C@H](CCNC(=O)OC/C=C/c1ccccc1)C1CC[C@H]2[C@@H]3[C@H](O)CC4C[C@H](O)CC[C@]4(C)[C@H]3CC[C@]12C (stereo partly drawn)	55	> 100000	900	Active
